Test results: the NIST ThermoML archive (doi:10.1021/je100102q)

Conditions: Gas, isochoric method

FCC(F)(F)F [1,1,1,2-tetrafluoroethane]
Conditions	molar volume [m3/mol]
253.09 K, 107.6 kPa	0.01875
272.92 K, 158.9 kPa	0.01358
282.69 K, 329.1 kPa	0.006516
282.8 K, 121.4 kPa	0.01878
292.87 K, 171.9 kPa	0.0136
292.89 K, 126.2 kPa	0.01878
302.58 K, 357.7 kPa	0.006522
313.1 K, 135.4 kPa	0.0188
313.1 K, 184.9 kPa	0.01361
323.07 K, 386.5 kPa	0.006528
333.03 K, 144.3 kPa	0.01882
333.03 K, 1610.8 kPa	0.001248
333.05 K, 197.5 kPa	0.01362
342.96 K, 413.7 kPa	0.006533
343 K, 1706.9 kPa	0.001248
352.93 K, 153.2 kPa	0.01883
352.94 K, 1798.6 kPa	0.001249
353.04 K, 210 kPa	0.01363
362.89 K, 440.7 kPa	0.006539
362.9 K, 1888.6 kPa	0.001249
372.82 K, 454 kPa	0.006542
372.84 K, 162.1 kPa	0.01885
372.87 K, 1976.6 kPa	0.00125
372.99 K, 222.4 kPa	0.01364

C=C(F)C(F)(F)F [2,3,3,3-tetrafluoro-1-propene]
Conditions	molar volume [m3/mol]
243.07 K, 98 kPa	0.01911
243.08 K, 84.5 kPa	0.02278
248.02 K, 86.5 kPa	0.02278
249.15 K, 87 kPa	0.02278
253.01 K, 105.1 kPa	0.01912
253.07 K, 88.5 kPa	0.02278
258.03 K, 90.4 kPa	0.02279
262.93 K, 171.7 kPa	0.01189
262.97 K, 109.8 kPa	0.01913
263.08 K, 92.4 kPa	0.02279
267.98 K, 94.2 kPa	0.0228
272.84 K, 179.3 kPa	0.01189
272.92 K, 114.4 kPa	0.01914
273.04 K, 96.2 kPa	0.0228
277.99 K, 98 kPa	0.02281
282.62 K, 118.8 kPa	0.01914
282.68 K, 186.6 kPa	0.0119
282.75 K, 430.2 kPa	0.004676
282.95 K, 99.9 kPa	0.02281
283 K, 394.6 kPa	0.005292
287.79 K, 101.7 kPa	0.02282
287.93 K, 447.1 kPa	0.004677
287.99 K, 403.8 kPa	0.005293
292.58 K, 193.9 kPa	0.0119
292.76 K, 103.6 kPa	0.02282
292.81 K, 457.2 kPa	0.004678
292.95 K, 412.8 kPa	0.005295
292.99 K, 123.5 kPa	0.01915
293.1 K, 508.2 kPa	0.004171
297.8 K, 105.5 kPa	0.02283
297.89 K, 467.6 kPa	0.00468
298.08 K, 422.1 kPa	0.005296
302.7 K, 201.4 kPa	0.01191
302.91 K, 477.9 kPa	0.004681
303.09 K, 431.1 kPa	0.005297
303.11 K, 703.6 kPa	0.002968
303.12 K, 107.4 kPa	0.02284
303.12 K, 128.1 kPa	0.01916
303.12 K, 531.3 kPa	0.004173
308.1 K, 439.9 kPa	0.005298
308.11 K, 109.3 kPa	0.02284
308.11 K, 488.4 kPa	0.004682
313.09 K, 448.7 kPa	0.005299
313.11 K, 111.2 kPa	0.02285
313.11 K, 498.5 kPa	0.004683
313.11 K, 554 kPa	0.004174
313.11 K, 738.1 kPa	0.002969
313.12 K, 132.7 kPa	0.01917
313.12 K, 209 kPa	0.01192
318.09 K, 457.5 kPa	0.0053
318.09 K, 508.5 kPa	0.004684
318.1 K, 113 kPa	0.02285
318.11 K, 861.5 kPa	0.002534
323.07 K, 518.3 kPa	0.004685
323.08 K, 114.9 kPa	0.02286
323.08 K, 466.1 kPa	0.005302
323.09 K, 216.2 kPa	0.01192
323.09 K, 576.5 kPa	0.004176
323.09 K, 771.8 kPa	0.00297
323.1 K, 137.1 kPa	0.01918
328.06 K, 474.7 kPa	0.005303
328.06 K, 528.3 kPa	0.004686
328.06 K, 901.7 kPa	0.002535
328.07 K, 116.8 kPa	0.02286
333.04 K, 118.8 kPa	0.02286
333.04 K, 483.3 kPa	0.005304
333.04 K, 538.1 kPa	0.004687
333.05 K, 537.8 kPa	0.004687
333.05 K, 598.7 kPa	0.004178
333.05 K, 804.7 kPa	0.002972
333.06 K, 141.6 kPa	0.01919
333.06 K, 223.4 kPa	0.01192
338 K, 1538.8 kPa	0.001325
338.01 K, 491.8 kPa	0.005305
338.02 K, 941.5 kPa	0.002536
338.03 K, 120.6 kPa	0.02287
338.03 K, 547.6 kPa	0.004688
342.99 K, 146.1 kPa	0.0192
342.99 K, 500.3 kPa	0.005306
343 K, 122.5 kPa	0.02287
343 K, 230.6 kPa	0.01193
343.01 K, 557.3 kPa	0.004689
343.01 K, 620.6 kPa	0.00418
343.02 K, 837.4 kPa	0.002973
347.94 K, 1624.6 kPa	0.001325
347.94 K, 2217.8 kPa	0.000789
347.96 K, 508.8 kPa	0.005307
347.97 K, 124.3 kPa	0.02288
347.98 K, 980.2 kPa	0.002537
347.98 K, 2157.7 kPa	0.000833
347.99 K, 567 kPa	0.00469
352.91 K, 517.2 kPa	0.005309
352.91 K, 2303.2 kPa	0.000789
352.96 K, 126.1 kPa	0.02288
352.96 K, 576.6 kPa	0.004691
352.96 K, 642.4 kPa	0.004182
352.96 K, 869.4 kPa	0.002974
352.98 K, 150.6 kPa	0.0192
352.98 K, 237.7 kPa	0.01194
352.99 K, 2237.2 kPa	0.000833
357.86 K, 2385.6 kPa	0.000789
357.88 K, 525.6 kPa	0.00531
357.92 K, 128 kPa	0.02289
357.93 K, 586.2 kPa	0.004692
357.93 K, 1018.7 kPa	0.002538
357.95 K, 1709 kPa	0.001326
357.95 K, 2314.1 kPa	0.000833
362.83 K, 2467.7 kPa	0.000789
362.86 K, 534 kPa	0.005311
362.89 K, 129.8 kPa	0.02289
362.89 K, 2389.2 kPa	0.000833
362.92 K, 595.8 kPa	0.004693
362.92 K, 664 kPa	0.004184
362.92 K, 3067.5 kPa	0.000251
362.93 K, 155 kPa	0.01921
362.93 K, 901.2 kPa	0.002976
362.96 K, 244.9 kPa	0.01194
367.8 K, 2548.9 kPa	0.000789
367.83 K, 542.5 kPa	0.005312
367.87 K, 131.9 kPa	0.0229
367.88 K, 1057 kPa	0.002539
367.88 K, 2463.9 kPa	0.000834
367.89 K, 605.3 kPa	0.004694
367.92 K, 1791.4 kPa	0.001326
367.92 K, 3386.9 kPa	0.000251
372.8 K, 2629.5 kPa	0.000789
372.81 K, 550.9 kPa	0.005313
372.82 K, 133.8 kPa	0.0229
372.84 K, 932.4 kPa	0.002977
372.85 K, 1075.9 kPa	0.00254
372.85 K, 2537.2 kPa	0.000834
372.87 K, 614.8 kPa	0.004695
372.88 K, 159.4 kPa	0.01922
372.88 K, 252 kPa	0.01195
372.88 K, 685.4 kPa	0.004185
372.88 K, 3715.9 kPa	0.000251
